Data on 28 molecules can be found in patent US12264159B2, “Functionalized heterocycles as antiviral agents” (Enanta Pharmaceuticals, Inc., priority 2018, dated 2025).

A value given as a limit tells only on which side of the number the result lay.

The experiment relates to HBV in 2.2.15 cells. Description: 2.2.15 cells: viral product in cell lysates quantified via quantitative real time PCR. Type of experiment: cell-based, hepatitis B virus (HBV). The conditions noted are these: Hepatitis B virus, 120 h, day 5 post treatment, 50% reduction of viral product vs no drug controls, readout (qPCR, HBsAg or HBeAg) not specified for the column. Here is the method: 2.2.15 cells are passaged upon attaining confluency in DMEM/F12 media in the presence of 10% FBS, Penn/Strep, and 250 ug/mL G418. Novel compounds are 5 fold serially diluted in DMSO and added to 96 well plates containing 35,000 cells/well at a 1:200 dilution so that the final concentration of DMSO is 0.5%. On day 5, post treatment cell lysates and supernatants are harvested for analysis.
Cells are lysed using Agilent Sidestep Lysis buffer, diluted 1:100 and quantified via quantitative real time PCR. Commercially available ELISA kits are used to quantitate the viral proteins HBsAg (Alpco) or HBeAg (US Biological) by following the manufacturer's recommended protocol after diluting samples to match the linear range of their respective assays. Irrespective of readout, compound concentrations that reduce viral product accumulation in the cell lysates or supernatants by 50% relative to no drug controls (EC50) are reported; EC50 ranges are as follows: A<0.1 μM; B 0.2-1 μM; C>1 μM.
Regarding `Cc1ncc(-c2cnn3c2-c2cc(=O)c(C(=O)O)cn2[C@H](C(C)(C)C)C3)s1` [Example 105, (R)-6-(tert-butyl)-1-(2-methylthiazol-5-yl)-10-oxo-5,6-dihydro-10H-pyrazolo[1,5-a]pyrido[2,1-c]pyrazine-9-carboxylic acid], the EC50 was 200 to 1000 nM.

As for `CC(C)[C@@H]1Cn2nc(-c3cncc(F)c3)c(-c3cncc(F)c3)c2-c2cc(=O)c(C(=O)O)cn21` [Example 174, (R)-1,2-bis(5-fluoropyridin-3-yl)-6-isopropyl-10-oxo-5,6-dihydro-10H-pyrazolo[1,5-a]pyrido[2,1-c]pyrazine-9-carboxylic acid], the EC50 fell in the range of 200 to 1000 nM.

In the case of `CC(C)[C@@H]1Cn2nc(C3CC3)c(-c3ccccc3O)c2-c2cc(=O)c(C(=O)O)cn21` [Example 141, (R)-2-cyclopropyl-1-(2-hydroxyphenyl)-6-isopropyl-10-oxo-5,6-dihydro-10H-pyrazolo[1,5-a]pyrido[2,1-c]pyrazine-9-carboxylic acid], the EC50 is below 100 nM.

`CC(C)[C@@H]1Cn2nc(C3CC3)c(-c3cn[nH]c3)c2-c2cc(=O)c(C(=O)O)cn21` [Example 137, (R)-2-cyclopropyl-6-isopropyl-10-oxo-1-(1H-pyrazol-4-yl)-5,6-dihydro-10H-pyrazolo[1,5-a]pyrido[2,1-c]pyrazine-9-carboxylic acid]: the EC50 was in the range of 200 to 1000 nM.

In turn, `CC(C)(C)[C@@H]1Cn2ncc(-c3ccccc3C(F)(F)F)c2-c2cc(=O)c(C(=O)O)cn21` [Example 121, (R)-6-(tert-butyl)-10-oxo-1-(2-(trifluoromethyl)phenyl)-5,6-dihydro-10H-pyrazolo[1,5-a]pyrido[2,1-c]pyrazine-9-carboxylic acid] returned a concentration giving a half-maximal response (EC50) above 1000 nM.

Take `CC(C)[C@@H]1Cn2nc(-c3ccncc3)c(-c3ccncc3)c2-c2cc(=O)c(C(=O)O)cn21` [Example 175, (R)-6-isopropyl-10-oxo-1,2-di(pyridin-4-yl)-5,6-dihydro-10H-pyrazolo[1,5-a]pyrido[2,1-c]pyrazine-9-carboxylic acid]: the EC50 lay in the range of 200 to 1000 nM.

`CC(C)[C@@H]1Cn2nc(-c3ccnnc3)c(-c3ccnnc3)c2-c2c(F)c(=O)c(C(=O)O)cn21` [Example 183, (R)-11-fluoro-6-isopropyl-10-oxo-1,2-di(pyridazin-4-yl)-5,6-dihydro-10H-pyrazolo[1,5-a]pyrido[2,1-c]pyrazine-9-carboxylic acid] returned an EC50 of 200 to 1000 nM.

The molecule `CC(C)[C@@H]1Cn2nc(C3CC3)c(-c3cnsc3)c2-c2cc(=O)c(C(=O)O)cn21` [Example 138, (R)-2-cyclopropyl-6-isopropyl-1-(isothiazol-4-yl)-10-oxo-5,6-dihydro-10H-pyrazolo[1,5-a]pyrido[2,1-c]pyrazine-9-carboxylic acid] yielded an EC50 below 100 nM.

`CC(C)[C@@H]1Cn2nc(-c3ccncc3)c(-c3ccncc3)c2-c2c(F)c(=O)c(C(=O)O)cn21` [Example 184, (R)-11-fluoro-6-isopropyl-10-oxo-1,2-di(pyridin-4-yl)-5,6-dihydro-10H-pyrazolo[1,5-a]pyrido[2,1-c]pyrazine-9-carboxylic acid] yielded an EC50 of 200 to 1000 nM.

For the molecule `CC(C)[C@@H]1Cn2nc(-c3ccnnc3)c(-c3ccnnc3)c2-c2cc(=O)c(C(=O)O)cn21` [Example 173, (R)-6-isopropyl-10-oxo-1,2-di(pyridazin-4-yl)-5,6-dihydro-10H-pyrazolo[1,5-a]pyrido[2,1-c]pyrazine-9-carboxylic acid], the half-maximal effective concentration (EC50) was 200 to 1000 nM.

As to `O=C(O)c1cn2c(cc1=O)-c1c(-c3ccc(F)cc3)c(-c3ccc(F)cc3)nn1CC2` [Example 200, 1,2-bis(4-fluorophenyl)-10-oxo-5,6-dihydro-10H-pyrazolo[1,5-a]pyrido[2,1-c]pyrazine-9-carboxylic acid], the EC50 was below 100 nM.

In turn, `CC(C)[C@@H]1Cn2nc(C3CC3)c(-c3ccnnc3)c2-c2cc(=O)c(C(=O)O)cn21` [Example 145, (R)-2-cyclopropyl-6-isopropyl-10-oxo-1-(pyridazin-4-yl)-5,6-dihydro-10H-pyrazolo[1,5-a]pyrido[2,1-c]pyrazine-9-carboxylic acid] yielded an EC50 of 200 to 1000 nM.

Molecule `CCOc1ccccc1-c1nn2c(c1F)-c1cc(=O)c(C(=O)O)cn1[C@H](C(C)(C)C)C2` [Example 92, (R)-6-(tert-butyl)-2-(2-ethoxyphenyl)-1-fluoro-10-oxo-5,6-dihydro-10H-pyrazolo[1,5-a]pyrido[2,1-c]pyrazine-9-carboxylic acid] yielded a concentration for a half-maximal effect (EC50) below 100 nM.

Molecule `CC(C)(C)[C@@H]1Cn2ncc(-c3cncnc3)c2-c2cc(=O)c(C(=O)O)cn21` [Example 120, (R)-6-(tert-butyl)-10-oxo-1-(pyrimidin-5-yl)-5,6-dihydro-10H-pyrazolo[1,5-a]pyrido[2,1-c]pyrazine-9-carboxylic acid] yielded an EC50 above 1000 nM.

On to `CC(C)(C)[C@@H]1Cn2nc(C3CC3)c(-c3ccnnc3)c2-c2cc(=O)c(C(=O)O)cn21` [Example 161, (R)-6-(tert-butyl)-2-cyclopropyl-10-oxo-1-(pyridazin-4-yl)-5,6-dihydro-10H-pyrazolo[1,5-a]pyrido[2,1-c]pyrazine-9-carboxylic acid], for which the EC50 lay within 200 to 1000 nM.

Regarding `CC(C)[C@@H]1Cn2nc(-c3ccc(OC4CC4)cc3)c(-c3ccc(OC4CC4)cc3)c2-c2cc(=O)c(C(=O)O)cn21` [Example 176, (R)-1,2-bis(4-cyclopropoxyphenyl)-6-isopropyl-10-oxo-5,6-dihydro-10H-pyrazolo[1,5-a]pyrido[2,1-c]pyrazine-9-carboxylic acid], the EC50 lay within 200 to 1000 nM.

The molecule `CC(C)[C@@H]1Cn2nc(-c3cccc(Cl)c3)c(-c3cccc(Cl)c3)c2-c2c(F)c(=O)c(C(=O)O)cn21` [Example 185, (R)-1,2-bis(3-chlorophenyl)-11-fluoro-6-isopropyl-10-oxo-5,6-dihydro-10H-pyrazolo[1,5-a]pyrido[2,1-c]pyrazine-9-carboxylic acid] registered an EC50 of 200 to 1000 nM.

`CC(C)(C)[C@@H]1Cn2ncc(-c3cccnc3)c2-c2cc(=O)c(C(=O)O)cn21` [Example 118, (R)-6-(tert-butyl)-10-oxo-1-(pyridin-3-yl)-5,6-dihydro-10H-pyrazolo[1,5-a]pyrido[2,1-c]pyrazine-9-carboxylic acid]: the EC50 was below 100 nM.

For the molecule `CC(C)[C@@H]1Cn2nc(-c3cccnc3)c(-c3cccnc3)c2-c2cc(=O)c(C(=O)O)cn21` [Example 177, (R)-6-isopropyl-10-oxo-1,2-di(pyridin-3-yl)-5,6-dihydro-10H-pyrazolo[1,5-a]pyrido[2,1-c]pyrazine-9-carboxylic acid], the EC50 is 200 to 1000 nM.

On to `O=C(O)c1cn2c(cc1=O)-c1c(-c3ccccc3F)c(-c3ccccc3F)nn1CC2` [Example 202, 1,2-bis(2-fluorophenyl)-10-oxo-5,6-dihydro-10H-pyrazolo[1,5-a]pyrido[2,1-c]pyrazine-9-carboxylic acid], for which the EC50 is below 100 nM.

Turning to `CC(C)(C)[C@@H]1Cn2nc(-c3ccc(F)cc3)c(Cl)c2-c2cc(=O)c(C(=O)O)cn21` [Example 87, (R)-6-(tert-butyl)-1-chloro-2-(4-fluorophenyl)-10-oxo-5,6-dihydro-10H-pyrazolo[1,5-a]pyrido[2,1-c]pyrazine-9-carboxylic acid], the half-maximal effective concentration (EC50) is below 100 nM.

On to `CC(C)(C)[C@@H]1Cn2nc(-c3ccc(F)cc3)c(-c3ccoc3)c2-c2cc(=O)c(C(=O)O)cn21` [Example 167, (R)-6-(tert-butyl)-2-(4-fluorophenyl)-1-(furan-3-yl)-10-oxo-5,6-dihydro-10H-pyrazolo[1,5-a]pyrido[2,1-c]pyrazine-9-carboxylic acid], for which the EC50 is below 100 nM.

`CC(C)(C)[C@@H]1Cn2cc(-c3ccc(F)cc3)nc2-c2cc(=O)c(C(=O)O)cn21` [Example 90, (R)-6-(tert-butyl)-2-(4-fluorophenyl)-10-oxo-5,6-dihydro-10H-imidazo[1,2-a]pyrido[2,1-c]pyrazine-9-carboxylic acid] yielded a half-maximal effective concentration (EC50) of 200 to 1000 nM.

Turning to `CC(C)[C@@H]1Cn2nc(-c3cccc(O)c3)c(-c3cccc(O)c3)c2-c2cc(=O)c(C(=O)O)cn21` [Example 178, (R)-1,2-bis(3-hydroxyphenyl)-6-isopropyl-10-oxo-5,6-dihydro-10H-pyrazolo[1,5-a]pyrido[2,1-c]pyrazine-9-carboxylic acid], the EC50 was below 100 nM.

With `CC(C)(C)[C@@H]1Cn2ncc(-c3cncs3)c2-c2cc(=O)c(C(=O)O)cn21` [Example 106, (R)-6-(tert-butyl)-10-oxo-1-(thiazol-5-yl)-5,6-dihydro-10H-pyrazolo[1,5-a]pyrido[2,1-c]pyrazine-9-carboxylic acid], the half-maximal effective concentration (EC50) is below 100 nM.

Turning to `CC(C)[C@@H]1Cn2nc(C3CC3)c(-c3ccncc3)c2-c2cc(=O)c(C(=O)O)cn21` [Example 144, (R)-2-cyclopropyl-6-isopropyl-10-oxo-1-(pyridin-4-yl)-5,6-dihydro-10H-pyrazolo[1,5-a]pyrido[2,1-c]pyrazine-9-carboxylic acid], the concentration giving a half-maximal response (EC50) is below 100 nM.

`CC(C)[C@@H]1Cn2nc(C3CC3)c(-c3cnco3)c2-c2cc(=O)c(C(=O)O)cn21` [Example 139, (R)-2-cyclopropyl-6-isopropyl-1-(oxazol-5-yl)-10-oxo-5,6-dihydro-10H-pyrazolo[1,5-a]pyrido[2,1-c]pyrazine-9-carboxylic acid] had an EC50 of 200 to 1000 nM.

For `CC(C)(C)[C@@H]1Cn2nc(-c3cc(F)ccc3OCC(F)(F)F)c(Cl)c2-c2cc(=O)c(C(=O)O)cn21` [Example 89, (R)-6-(tert-butyl)-1-chloro-2-(5-fluoro-2-(2,2,2-trifluoroethoxy)phenyl)-10-oxo-5,6-dihydro-10H-pyrazolo[1,5-a]pyrido[2,1-c]pyrazine-9-carboxylic acid], the EC50 was below 100 nM.

Broadly, the EC50 is the concentration needed to bring the measured effect to its halfway point. Low values mean higher potency in that assay, high ones lower potency in that assay.
